Measurements reported in patent publication US12258424B2, “Polypeptides and compositions comprising the same” (priority 2020, dated 2025).
Residues, ends and D or L forms follow the SMILES beside them.

What was measured:
[1] = tested on: IFNγ, PD-L1 and IL-6 in CT26 tumors; assay: ELISA of IFNγ, PD-L1 and IL-6 in harvested CT26 tumors; type: in vivo, mouse
From the text: Animal Study. The animal protocol was approved by the University of Missouri-Kansas City, Institutional Animal Care and Use Committee (IACUC). Five-week old male and female Balb/c mice were purchased from Charles Rivers Laboratories (Wilmington, Mass.) and housed in a temperature and humidity controlled room on a 12-hour light-dark cycle. Approximately 5×10^5 CT26 cells were subcutaneously injected into the right flank. The mice were randomly divided into five different groups (10 mice/group, 50% female, 50% male). The mice were intraperitoneally injected with 2 mg/kg peptide daily when the tumor size reached 50-100 mm^3. The anti-mouse PD-L1 antibody (10F.9G2, BioXcell) was administrated as a positive control at a dose of 10 mg/kg every two days. The tumor size was assessed with a caliper and calculated with the formula 0.5×length×width^2. ELISA kits of PD-L1 (Cat #DY1019-05), IFNγ (Cat #DY485-05), and IL-6 (Cat #DY406-05) were used to measure the expressions of PD-L1, IFNγ, and IL-6, respectively, in tumors as per the company's instructions (R & D Systems, Minneapolis, MN).

[2] = target: human PD-L1/CD80 interaction (Homo sapiens, UniProt Q9NZQ7); assay: Blockade of the CD80/PD-L1 interaction; type: binding; conditions: at 10 μM, FIG. 8a
human PD-L1/CD80 interaction, sequence (Q9NZQ7 19-238 limits assumed): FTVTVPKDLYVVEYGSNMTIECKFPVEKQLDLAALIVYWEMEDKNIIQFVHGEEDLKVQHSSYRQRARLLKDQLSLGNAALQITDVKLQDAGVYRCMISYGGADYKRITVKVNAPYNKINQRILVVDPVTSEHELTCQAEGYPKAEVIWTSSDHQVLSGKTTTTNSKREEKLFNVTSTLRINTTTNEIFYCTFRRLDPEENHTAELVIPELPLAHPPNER

[3] = target: T1, recombinant human PD-L1 ECD protein (Homo sapiens, UniProt Q9NZQ7); assay: SPR binding kinetics and affinity to immobilized human PD-L1; conditions: read-out: Ka
T1 construct: against the recombinant human PD-L1 ECD protein were evaluated using SPR; purchased G&P Biosciences FCL0784B
T1 sequence (Q9NZQ7 19-238 limits assumed): as above
Description: In such aspects, the equilibrium dissociate constant KD value against recombinant human PD-L1 can be determined according to an KD to PD-L1 SPR Assay. The KD to PD-L1 SPR Assay can include the use of Surface Plasmon Resonance (SPR), such as the B14500, Biosensing Instrument, and can include the following procedures. The PD-L1 protein can be diluted to 10 μg/mL with sodium acetate buffer (pH 5.0, GE Healthcare, PA) and covalently coated onto a CM5 sensor chip (CM Dextran Sensor Chip, Biosensing Instrument) using the standard Amine Coupling Kit (GE Healthcare, PA). Approximately 6500 RU of PD-L1 protein are immobilized onto the chip. A second channel is used as a reference. HBS-EP+ buffer (GE Healthcare) can be employed at a flow rate of 60 μL/min. A series of concentrations of each peptide (15, 30, 60, 125, 250, 500, 1000, 5000 and 10,000 nM) is prepared in HBS-EP+ running buffer to obtain the equilibrium dissociation constant (KD) values of the peptides. The CM5 sensor chip can be regenerated with 10 mM NaOH for 20 s. The results can be analyzed using the software of Bi data analysis software.
Evaluation of Binding Kinetics and Affinity By Surface Plasmon Resonance (SPR). Binding affinities of the PD-L1 specific peptides for human PD-L1 protein were determined by SPR (B14500, Biosensing Instrument). PD-L1 protein was diluted to 10 μg/mL with sodium acetate buffer (pH 5.0, GE Healthcare, PA) and covalently coated onto a CM5 sensor chip (CM Dextran Sensor Chip, Biosensing Instrument) using the standard Amine Coupling Kit (GE Healthcare, PA). Approximately 6500 RU of PD-L1 protein were immobilized onto the chip. A second channel was used as a reference. HBS-EP+ buffer (GE Healthcare) was employed at a flow rate of 60 μL/min. A series of concentrations of each peptide (15, 30, 60, 125, 250, 500, 1000, 5000 and 10,000 nM) were prepared in HBS-EP+ running buffer to obtain the equilibrium dissociation constant (KD) values of the peptides. The CM5 sensor chip was regenerated with 10 mM NaOH for 20 seconds. The results were analyzed using the software of Bi data analysis software. Binding affinities of the anti-PD-L1 peptides to BSA was also assessed following the procedure for human PD-L1.

[4] = tested on: Jurkat T cells co-cultured with DU-145 cancer cells; assay: Jurkat T cell apoptosis in co-culture with DU-145 cells (Annexin V/PI); type: cell-based, human; conditions: co-culture with DU-145 (15.1% untreated); peptide 5 μM or antibody 1 μM, 24 hours
Description: (§1) Proliferation and Apoptosis Assays. […] Briefly, 3×10^4 Jurkat T cells were cultured alone or co-cultured with 1.5×10^5 DU-145 cancer cells in a 24-well plate for the proliferation assay. For the apoptosis assay, 6×10^4 Jurkat T cells were cultured alone or co-cultured with 3×10^5 DU-145 cancer cells in a 6-well plate. After incubation with the anti-PD-L1 peptides (5 μM) or anti-PD-L1 antibody (1 μM) for 24 hours, Jurkat T cells were harvested from the supernatant. Proliferation of Jurkat cells was determined using the CellTiter-Glo luminescent cell viability assay (Promega, WI), and apoptosis of the cells were determined using the Dead Cell Apoptosis Kit with Annexin V Alexa Fluor® 488 and Propidium Iodide (Thermo-Fisher Scientific, Pittsburgh, PA) as we described before^21.

hPD-L1 = hPD-L1 (Homo sapiens, UniProt Q9NZQ7); assay: Blockade of the PD-1/PD-L1 interaction, plate coated with human PD-L1 protein; type: binding; parameters: PD-L1 protein (G&P Biosciences, human PD-L1 ECD, cat #FCL0784B); purchased G&P Biosciences FCL0784B (PD-L1)
hPD-L1, sequence (Q9NZQ7 19-238 limits assumed): as above
Description: Ninety-six-well plates were coated with 100 ng of PD-L1 protein (G&P Biosciences, human PD-L1 ECD, cat #FCL0784B. mouse PD-L1, cat #FCL3502B) and later blocked with 2% BSA for 2 hours at room temperature. Various concentrations of peptides were loaded into the wells and incubated for 1 hour at room temperature. […] Streptavidin-HRP (R & D systems) and chromogenic substrate were added into the wells. OD450 was then recorded and referenced to OD540.

[5] = tested on: CD8+ T cells in CT26 tumor tissues; assay: IHC staining of CD8+ T cells in CT26 tumor tissues; type: in vivo, mouse
Description: Immunohistochemistry (IHC) Staining. Tumor tissues were fixed in 10% formalin, embedded in paraffin, sectioned, and mounted on glass slides by Truman Medical Centers Anatomic Pathology Core (Kansas City, MO). The slides were heated in Tris buffer (pH 9.0) for 45 min to recover antigen. After deparaffinization and rehydration, the sections were stained with the anti-mouse CD8 alpha antibody (Abcam, ab209775) overnight at 4° C. The slides were incubated with a biotinylated goat anti-rabbit secondary antibody, followed by the DAB chromogen mixture. Four sections (2 male and 2 female) were imaged in each group. For each section, 3 regions were randomly selected for imaging.

4T1 cancer cell = type: cell-based, mouse
[6] = tested on: Jurkat T cells co-cultured with DU-145 cancer cells; assay: Jurkat T cell proliferation in co-culture with DU-145 cells (CellTiter-Glo); type: cell-based, human; conditions: peptide 5 μM, 24 hours
Description: as §1

## CC(C)C[C@H](NC(=O)[C@H](CC(N)=O)NC(=O)[C@H](Cc1c[nH]c2ccccc12)NC(=O)[C@@H](NC(=O)[C@H](Cc1ccc(O)cc1)NC(=O)[C@H](Cc1ccc(O)cc1)NC(=O)[C@H](CO)NC(=O)[C@H](CCCNC(=N)N)NC(=O)[C@H](Cc1c[nH]cn1)NC(=O)[C@@H](N)Cc1c[nH]c2ccccc12)[C@@H](C)O)C(=O)N[C@@H](CC(N)=O)C(=O)N[C@H](C(=O)O)[C@@H](C)O [CLP002] (H-WHRSYYTWNLNT-OH; N-terminus and C-terminus assumed)
[1]
  IL-6 expression in tumor tissues: decreased expression of IL-6
[2]
  Blocking efficiency against CD80/PD-L1 interaction: ~48%
[3]
  kon: 4520 M⁻¹ s⁻¹
[4]
  Apoptosis of Jurkat cells: 10.2%
hPD-L1; human PD-L1 protein
  Blocking Efficiency (%): 85%
hPD-L1; peptides at 10 μM, FIG. 2c
  Blocking of the human PD-1/PD-L1 interaction (in words): highest blocking efficiency
hPD-L1; plate coated with human PD-L1 protein
  IC50: 2170 nM
[5]
  Density of CD8+ T cells in tumor tissues: significantly increased
  Location of CD8+ T cells in the tumor: penetration of CD8^+ T cells into the tumor tissue
4T1 cancer cell; 4T1 cancer cell
  Blocking Efficiency (%): 61%
4T1 cancer cell; 2 h
  IC50: 2440 nM
[6]
  Effect on Jurkat T cell proliferation: restored Jurkat T cell proliferation
